Biological target: P-glycoprotein 1 and 3 (MDR1a/MDR1b) (Mus musculus, UniProt P21447+P06795)
Experiment: TP_TRANSPORTER: decrease in biliary excretion in mdr1a/1b(-/-) mouse
Format: functional, organism-based, Bile
Conditions: in vivo

## CCc1c2c(nc3ccc(OC(=O)N4CCC(N5CCCCC5)CC4)cc13)-c1cc3c(c(=O)n1C2)COC(=O)[C@]3(O)CC [IRINOTECAN]
  Activity: substrate [+]
